pIC50: −log10 of the molar value.

Assay [1] has as its target human Glycogen Synthase Kinase-3 beta (hGSK-3β) (Homo sapiens, UniProt P49841). In words: Biochemical hGSK-3Beta assay (33P-ATP phosphorylation of biotinylated peptide substrate). Conditions: 10 μM ATP, 30 minutes at room temperature, read-out: GSK-3β IC50. As for the experimental part:
Methods—Biochemical hGSK-3Beta Assay
Compounds were tested for their ability to inhibit human Glycogen Synthase Kinase-3 beta (hGSK-3β) to phosphorylate biotin-[…](pS)EDEEE. Compounds were incubated with 0.5 μCi 33P-ATP, 10 μM ATP, 0.0125 U hGSK-3β (Upstate cell signaling solutions) and 1 μM substrate (biotin-[…](pS)EDEEE) in 50 mM HEPES, 10 mM MgCl2, […], 1 mM DTT, 0.0075% Triton, 2% DMSO (total volume 50 μL) for 30 minutes at room temperature. The incubation was stopped by addition of an equal volume of 100 mM EDTA, 4M NaCl. 80 μL of this mixture was added to streptavidin-coated Flashplates (PerkinElmer). Following a wash step, 33P incorporation was quantified on a MicroBeta microplate liquid scintillation counter (PerkinElmer). IC50's were determined by fitting a sigmoidal dose-response curve to the counts obtained at the different concentrations in GraphPad Prism.

Assay [2] deals with β-catenin-modulated gene transcription. In words: β-Catenin reporter-gene assay (LEF/TCF TOPFLASH/FOPFLASH luciferase). It is filed as cell-based. The conditions noted are these: human neuroblastoma cells, 24 h; symbols +/++/+++ not defined. As for the experimental part: Methods—β-Catenin Reporter-Gene Assay
Compounds were tested for their ability to modulate β-catenin-modulated gene transcription in a LEF/TCF (T-cell factor) reporter gene assay. […] human neuroblastoma cells were transiently transfected with 80 ng/well TOPFLASH plasmid (Up-state cell signaling solutions) containing two sets of three copies of the TCF binding site upstream of the Thymidine Kinase minimal promoter and firefly Luciferase open reading frame or with 80 ng/well FOPFLASH plasmid (Upstate cell signaling solutions) containing three copies of a mutated TCF binding site upstream of the Thymidine Kinase minimal promoter and firefly Luciferase open reading frame. In addition all cells were transiently transfected with the 20 ng/well pRL-TK plasmid (Promega) containing the herpes simplex virus thymidine kinase promoter to provide low to moderate levels of Renilla Luciferase expression. Transfection medium was exchanged for serum-free medium containing the test substance and incubated for 24 h at 37 degreed C. The incubation was stopped and quantified using the Dual Glo Luciferase Assay (Promega) as indicated and quantified on a Pherastar reader (BMG).
Firefly Luciferase activity was normalised for Renilla Luciferase activity per well. Subsequently, the normalised TOPFLASH response was compared to the normalised FOPFLASH response, thus giving the LEF/TCF specific signal. […]

human Glycogen Synthase Kinase-3 beta (hGSK-3β), sequence (P49841 whole entry): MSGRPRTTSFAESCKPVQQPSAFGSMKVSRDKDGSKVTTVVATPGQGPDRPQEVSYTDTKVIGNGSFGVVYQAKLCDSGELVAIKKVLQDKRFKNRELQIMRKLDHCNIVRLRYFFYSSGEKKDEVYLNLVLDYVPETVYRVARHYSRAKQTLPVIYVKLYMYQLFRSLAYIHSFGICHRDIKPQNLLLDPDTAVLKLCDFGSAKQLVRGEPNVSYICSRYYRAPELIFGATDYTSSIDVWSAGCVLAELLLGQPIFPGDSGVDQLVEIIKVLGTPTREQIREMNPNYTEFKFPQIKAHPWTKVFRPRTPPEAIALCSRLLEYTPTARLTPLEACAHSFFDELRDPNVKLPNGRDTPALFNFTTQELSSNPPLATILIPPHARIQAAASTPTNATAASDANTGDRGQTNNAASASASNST

For `O=C1Nc2cc([N+](=O)[O-])ccc2Nc2nnc(Cl)cc21` [Example 4, 2-Chloro-8-nitro-5,10-dihydro-3,4,5,10-tetraaza-dibenzo[a,d]cyclohepten-11-one], the negative logarithm of the IC50 (pIC50) in assay [1] is 6.20. For `NC(=O)c1cccc2c1Nc1ccccc1C(=O)N2` [Example 6, 11-Oxo-10,11-dihydro-5H-dibenzo[b,e][1,4]diazepine-6-carboxylic acid amide, reference compound], in assay [1], the negative logarithm of the IC50 (pIC50) was 4.24. Further, the “Cellular Activity in GSK-3β TOPFLASH assay” value in assay [2] is on record as “INACTIVE”. Regarding `O=C1Nc2ncccc2Nc2nnc(Cl)cc21` [Example 7, 8-Chloro-5,10-dihydro-1,5,6,7,11-pentaaza-dibenzo[a,d]cyclohepten-11-one], in assay [1], the pIC50 is 7.00.

`C=Cc1cc2c(nn1)Nc1ccccc1NC2=O` [Example 10, 2-Vinyl-5,10-dihydro-3,4,5,10-tetraaza-dibenzo[a,d]cyclohepten-11-one]: in assay [1], the pIC50 was 7.35.

Usually pIC50 stands for the negative decadic logarithm of the IC50, by convention in mol/L.

Source of the values: US7994160B2, “Pyridazine compounds as glycogen synthase kinase 3 inhibitors” (Abbott GmbH & Co. KG, priority 2005, dated 2011).
